Results reported in patent publication US20260306638A1, “COMPOUNDS AND USES THEREOF” (FOGHORN THERAPEUTICS INC., priority 2023, published 2026).

Key:
[1] = biological target: T1, HiBit-BRG1 fusion protein (Homo sapiens, UniProt P51532); experiment: HiBit-BRG1 degradation in a stable HeLa cell line expressing HiBit-BRG1 and LgBit (cell-based degradation assay); conditions: HeLa cells, 24 h; for Dmax: human, 30 μM top dose, read-out: BRG1 HiBit Degradation Maximum
T1 construct: HiBiT; expressed in transfected cells
Experimental: (§1) Procedure: A stable HeLa cell line expressing HiBiT-BRM was generated. On day 0, 5000 cells were seeded in 40 μL of media into each well of 384-well cell culture plates. On day 1, cells were treated with 120 nL DMSO or 120 nL of 3-fold serially DMSO-diluted compounds (10 points in duplicate with 30 µM as final top dose). Subsequently plates were incubated for 24 h in a standard tissue culture incubator and equilibrated at room temperature for 15 minutes. Nano-Glo HiBiT Lytic Detection System (Promega N3050) reagent was freshly prepared and 20 μl was added to each well. Upon addition of this LgBit-containing reagent, the HiBIT and LgBiT proteins associate to form the luminescent NanoBiT luciferase. The plates were shaken for 10 minutes at room temperature and the bioluminescence read using an En Vision plate reader (PerkinElmer).
For measurement of BRG1 degradation, a stable HeLa cell line expressing HiBit-BRG1 and LgBit was generated. The same protocol as above was then followed.
(§2) The degradation % was calculated using the following formula: % degradation=100%−100%×(Lumsample−LumLC)/(LumHC−LumLC). DMSO treated cells are employed as High Control (HC) and 2 μM of a known BRM/BRG1 degrader standard treated cells are employed as Low Control (LC).

HiBit-BRM fusion protein = biological target: T2, HiBit-BRM fusion protein (Homo sapiens, UniProt P51531); experiment: HiBiT-BRM degradation in a stable HeLa cell line (cell-based degradation assay, Nano-Glo HiBiT Lytic Detection); conditions: HeLa cells, 24 h; for Dmax: human, 30 μM top dose, read-out: BRM HiBit Degradation Maximum
T2 construct: HiBiT; expressed in transfected cells
Experimental: as §1, §2

T1 sequence (P51532 whole entry, the tested form may be a part): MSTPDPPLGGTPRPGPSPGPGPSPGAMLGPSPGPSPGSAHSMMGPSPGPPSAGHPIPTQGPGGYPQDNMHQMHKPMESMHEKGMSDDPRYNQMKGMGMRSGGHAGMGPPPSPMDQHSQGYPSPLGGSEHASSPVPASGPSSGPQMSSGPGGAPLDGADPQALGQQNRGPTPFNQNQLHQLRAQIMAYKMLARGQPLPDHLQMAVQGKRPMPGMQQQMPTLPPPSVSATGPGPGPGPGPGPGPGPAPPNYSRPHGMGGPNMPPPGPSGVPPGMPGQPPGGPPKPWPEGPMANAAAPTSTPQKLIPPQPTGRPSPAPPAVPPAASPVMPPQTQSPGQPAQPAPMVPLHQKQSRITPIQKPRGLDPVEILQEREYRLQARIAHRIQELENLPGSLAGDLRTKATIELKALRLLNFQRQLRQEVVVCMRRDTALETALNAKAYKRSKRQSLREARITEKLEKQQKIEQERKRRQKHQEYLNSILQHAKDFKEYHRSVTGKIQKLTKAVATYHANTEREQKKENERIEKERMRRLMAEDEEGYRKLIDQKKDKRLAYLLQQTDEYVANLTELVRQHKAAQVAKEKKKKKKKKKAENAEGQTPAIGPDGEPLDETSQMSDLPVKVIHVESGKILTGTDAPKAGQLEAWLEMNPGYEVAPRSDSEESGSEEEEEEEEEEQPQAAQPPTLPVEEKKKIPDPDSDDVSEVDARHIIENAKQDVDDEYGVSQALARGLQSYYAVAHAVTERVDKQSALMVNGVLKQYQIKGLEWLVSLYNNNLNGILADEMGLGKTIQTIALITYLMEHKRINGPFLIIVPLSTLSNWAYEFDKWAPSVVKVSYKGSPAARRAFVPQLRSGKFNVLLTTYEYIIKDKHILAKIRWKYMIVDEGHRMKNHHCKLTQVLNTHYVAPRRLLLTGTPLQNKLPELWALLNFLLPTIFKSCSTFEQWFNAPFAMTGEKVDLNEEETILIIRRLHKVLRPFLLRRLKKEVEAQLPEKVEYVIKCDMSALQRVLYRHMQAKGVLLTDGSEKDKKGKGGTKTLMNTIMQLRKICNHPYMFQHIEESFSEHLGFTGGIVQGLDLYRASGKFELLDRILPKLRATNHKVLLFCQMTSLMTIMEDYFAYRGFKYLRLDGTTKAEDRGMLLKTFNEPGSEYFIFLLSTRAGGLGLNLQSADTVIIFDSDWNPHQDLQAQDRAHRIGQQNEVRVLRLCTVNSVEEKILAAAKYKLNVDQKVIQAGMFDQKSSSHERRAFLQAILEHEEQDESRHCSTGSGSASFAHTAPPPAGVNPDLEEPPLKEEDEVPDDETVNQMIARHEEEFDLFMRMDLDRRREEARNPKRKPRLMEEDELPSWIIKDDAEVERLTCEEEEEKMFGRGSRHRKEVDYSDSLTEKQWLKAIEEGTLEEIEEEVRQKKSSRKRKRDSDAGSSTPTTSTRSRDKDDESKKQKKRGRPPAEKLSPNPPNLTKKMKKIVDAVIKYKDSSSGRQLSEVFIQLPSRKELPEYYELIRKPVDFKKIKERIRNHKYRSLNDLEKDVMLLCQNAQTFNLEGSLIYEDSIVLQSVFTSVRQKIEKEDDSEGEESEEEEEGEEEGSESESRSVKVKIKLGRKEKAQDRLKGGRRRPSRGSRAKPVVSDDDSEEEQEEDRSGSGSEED
T2 sequence (P51531 whole entry, the tested form may be a part): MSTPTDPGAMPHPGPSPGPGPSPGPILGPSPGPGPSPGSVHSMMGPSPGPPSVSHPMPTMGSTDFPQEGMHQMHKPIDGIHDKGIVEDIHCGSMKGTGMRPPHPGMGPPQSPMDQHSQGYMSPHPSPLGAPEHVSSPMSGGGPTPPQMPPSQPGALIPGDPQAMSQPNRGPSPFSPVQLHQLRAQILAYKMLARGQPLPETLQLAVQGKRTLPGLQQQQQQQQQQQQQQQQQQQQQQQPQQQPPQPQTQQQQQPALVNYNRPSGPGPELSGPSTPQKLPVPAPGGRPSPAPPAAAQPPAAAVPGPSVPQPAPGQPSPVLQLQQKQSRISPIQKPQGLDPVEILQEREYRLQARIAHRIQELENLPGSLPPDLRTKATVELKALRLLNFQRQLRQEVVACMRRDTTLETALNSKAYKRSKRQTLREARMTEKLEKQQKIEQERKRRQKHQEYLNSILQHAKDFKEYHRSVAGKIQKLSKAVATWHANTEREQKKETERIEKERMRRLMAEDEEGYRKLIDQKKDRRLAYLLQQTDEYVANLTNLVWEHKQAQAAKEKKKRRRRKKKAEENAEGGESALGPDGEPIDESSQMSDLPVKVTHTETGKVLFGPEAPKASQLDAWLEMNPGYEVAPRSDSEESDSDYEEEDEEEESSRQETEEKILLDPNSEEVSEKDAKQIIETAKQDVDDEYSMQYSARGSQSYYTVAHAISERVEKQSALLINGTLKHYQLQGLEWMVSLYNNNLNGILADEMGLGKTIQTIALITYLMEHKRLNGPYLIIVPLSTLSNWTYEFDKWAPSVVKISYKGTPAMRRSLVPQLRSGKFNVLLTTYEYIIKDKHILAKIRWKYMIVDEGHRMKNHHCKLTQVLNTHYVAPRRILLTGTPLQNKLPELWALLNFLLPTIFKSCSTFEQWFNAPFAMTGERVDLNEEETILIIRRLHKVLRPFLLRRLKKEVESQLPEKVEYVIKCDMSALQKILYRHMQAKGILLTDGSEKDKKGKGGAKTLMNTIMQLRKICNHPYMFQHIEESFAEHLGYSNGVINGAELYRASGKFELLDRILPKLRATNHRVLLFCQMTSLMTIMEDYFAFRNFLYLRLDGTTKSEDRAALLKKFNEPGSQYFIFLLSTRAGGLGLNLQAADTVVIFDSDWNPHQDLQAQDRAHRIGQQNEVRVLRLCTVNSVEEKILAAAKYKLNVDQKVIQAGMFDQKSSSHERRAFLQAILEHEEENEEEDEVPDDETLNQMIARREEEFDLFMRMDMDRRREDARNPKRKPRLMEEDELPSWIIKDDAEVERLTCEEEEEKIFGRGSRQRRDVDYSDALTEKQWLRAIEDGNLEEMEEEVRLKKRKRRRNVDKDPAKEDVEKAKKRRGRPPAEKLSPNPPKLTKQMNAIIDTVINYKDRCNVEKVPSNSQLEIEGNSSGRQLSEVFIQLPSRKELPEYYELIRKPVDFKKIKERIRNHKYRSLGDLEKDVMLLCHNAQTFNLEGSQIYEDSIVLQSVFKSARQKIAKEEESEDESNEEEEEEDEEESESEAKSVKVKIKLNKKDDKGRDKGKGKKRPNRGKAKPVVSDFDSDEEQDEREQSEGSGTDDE

SMILES	Dmax [1] [%]	DC50 (HiBit-BRM fusion protein) [nM]	Dmax (HiBit-BRM fusion protein) [%]	DC50 ([1]; read-out: BRMG1 HiBit Degradation DC50) [nM]
Cc1ncsc1-c1ccc([C@H](C)NC(=O)[C@@H]2C[C@@H](O)CN2C(=O)[C@@H](c2cc(N3CC4(C3)CN(c3ccc5nnc(-c6ccccc6O)cc5n3)C4)no2)C(C)C)cc1 [Compound 1, (2S,4R)-4-hydroxy-1-[(2R)-2-(3-{6-[3-(2-hydroxyphenyl)pyrido[3,2-c]pyridazin-6-yl]-2,6-diazaspiro[3.3]heptan-2-yl}-1,2-oxazol-5-yl)-3-methylbutanoyl]-N-[(1S)-1-[4-(4-methyl-1,3-thiazol-5-yl)phenyl]ethyl]pyrrolidine-2-carboxamide]	< 50	< 10	≥ 75	–
Cc1nc2cc(-c3ccccc3O)nnc2cc1N1CC2(CN(c3cc([C@H](C(=O)N4C[C@H](O)C[C@H]4C(=O)N[C@@H](C)c4ccc(-c5scnc5C)cc4)C(C)C)on3)C2)C1 [Compound 3, (2S,4R)-4-hydroxy-1-[(2R)-2-(3-{6-[3-(2-hydroxyphenyl)-6-methylpyrido[3,2-c]pyridazin-7-yl]-2,6-diazaspiro[3.3]heptan-2-yl}-1,2-oxazol-5-yl)-3-methylbutanoyl]-N-[(1S)-1-[4-(4-methyl-1,3-thiazol-5-yl)phenyl]ethyl]pyrrolidine-2-carboxamide]	< 50	< 10	≥ 75	–
Cc1ncsc1-c1ccc([C@H](C)NC(=O)[C@@H]2C[C@@H](O)CN2C(=O)[C@H](C(C)C)n2cc(-c3ccc4nnc(-c5ccccc5O)cc4n3)nn2)cc1 [Compound 2, (2S,4R)-4-hydroxy-1-[(2S)-2-{4-[3-(2-hydroxyphenyl)pyrido[3,2-c]pyridazin-6-yl]-1,2,3-triazol-1-yl}-3-methylbutanoyl]-N-[(1S)-1-[4-(4-methyl-1,3-thiazol-5-yl)phenyl]ethyl]pyrrolidine-2-carboxamide]	≥ 75	< 10	≥ 75	< 10
Cc1ncsc1-c1ccc([C@H](C)NC(=O)[C@@H]2C[C@@H](O)CN2C(=O)[C@@H](c2cc(N3CC4(C3)CN(c3cc5nnc(-c6ccccc6O)cc5n(C)c3=O)C4)no2)C(C)C)cc1 (single isomer, unassigned) [Compound 4]	< 50	< 10	≥ 75	–
